Experimental data as given in paper PMC6758606, “Novel 2-substituted-benzimidazole-6-sulfonamides as carbonic anhydrase inhibitors: synthesis, biological evaluation against isoforms I, II, IX and XII and molecular docking studies” (Journal of Enzyme Inhibition and Medicinal Chemistry, 2019).
pKi: −log10 of the molar value.

How the values were obtained:
Assay type in all cases: biochemical
hCA IX = molecular target: T1, hCA IX (Homo sapiens, UniProt Q16790); test: stopped-flow CO2 hydrase assay, hCA IX; details: for pKi: recombinant enzyme, stopped-flow CO2 hydrase assay, mean from 3 different assays, errors ± 5–10%; for SR IX/II (Selectivity Ratio): selectivity for inhibiting hCA IX over hCA II (values equal Ki hCA II / Ki hCA IX)
T1 construct: made in house
Procedure: (§1) An Applied Photophysics stopped-flow instrument has been used for assaying the CA-catalysed CO2 hydration activity. Phenol red (at a concentration of 0.2 mM) has been used as indicator, working at the absorbance maximum of 557 nm, with 20 mM Hepes (pH 7.5) as buffer, and 20 mM Na2SO4 (for maintaining constant the ionic strength), following the initial rates of the CA-catalysed CO2 hydration reaction for a period of 10–100 s. CO2 concentrations ranged from 1.7 to 17 mM for the determining inhibition constants. […] Uncatalyzed rates were determined in the same manner and subtracted from the total observed rates. Stock solutions of inhibitor (0.1 mM) were prepared in buffer with a maximum 3% DMSO, and dilutions up to 0.01 nM were done with the assay buffer. Inhibitor and enzyme solutions were preincubated for 15 min at room temperature prior to assay, in order to allow for the formation of the E–I complex. The inhibition constants were obtained by nonlinear least-squares methods using PRISM 3 and the Cheng-Prusoff equation, as reported earlier, and represent the mean from at least three different determinations. All CA isoforms were recombinant ones obtained in-house as reported earlier.
(§2) AAZ 1 was used as the standard drug in the assay.

hCA XII = molecular target: T2, hCA XII (Homo sapiens, UniProt O43570); test: stopped-flow CO2 hydrase assay, hCA XII; details: for pKi: recombinant enzyme, stopped-flow CO2 hydrase assay, mean from 3 different assays, errors ± 5–10%; for SR XII/II (Selectivity Ratio): selectivity for inhibiting hCA XII over hCA II (values equal Ki hCA II / Ki hCA XII)
T2 construct: made in house
T2 sequence (O43570 25-354): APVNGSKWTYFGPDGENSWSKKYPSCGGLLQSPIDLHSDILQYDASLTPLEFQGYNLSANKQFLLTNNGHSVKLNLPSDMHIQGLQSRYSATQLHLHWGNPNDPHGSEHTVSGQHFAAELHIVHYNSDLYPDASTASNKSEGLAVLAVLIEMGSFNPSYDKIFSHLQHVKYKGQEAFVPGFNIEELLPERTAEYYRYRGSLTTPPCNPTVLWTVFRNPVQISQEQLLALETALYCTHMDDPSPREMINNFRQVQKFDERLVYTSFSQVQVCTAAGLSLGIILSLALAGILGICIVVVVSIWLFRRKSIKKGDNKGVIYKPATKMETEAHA
Procedure: as §1, §2

hCA II = molecular target: T3, hCA II (Homo sapiens, UniProt P00918); test: stopped-flow CO2 hydrase assay, hCA II; details: recombinant enzyme, mean from 3 different assays, errors ± 5–10%
T3 construct: made in house
Procedure: as §1, §2

hCA I = molecular target: T4, hCA I (Homo sapiens, UniProt P00915); test: stopped-flow CO2 hydrase assay, hCA I; details: recombinant enzyme, mean from 3 different assays, errors ± 5–10%
T4 construct: made in house
T4 sequence (P00915 whole entry): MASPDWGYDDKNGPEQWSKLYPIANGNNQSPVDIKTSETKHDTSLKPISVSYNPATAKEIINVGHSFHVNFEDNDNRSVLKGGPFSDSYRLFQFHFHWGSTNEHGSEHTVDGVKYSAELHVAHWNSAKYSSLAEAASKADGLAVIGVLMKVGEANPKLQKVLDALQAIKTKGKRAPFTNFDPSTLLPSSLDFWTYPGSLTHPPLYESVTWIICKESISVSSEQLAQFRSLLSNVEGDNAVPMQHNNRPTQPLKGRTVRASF
Procedure: as §1, §2

pKi (hCA IX)	SR IX/II (Selectivity Ratio) (hCA IX)	pKi (hCA XII)	SR XII/II (Selectivity Ratio) (hCA XII)	pKi (hCA II)	pKi (hCA I)	SMILES
7.76	5.8	7.36	2.3	6.99	6.62	NS(=O)(=O)c1ccc2nc(-c3ccc(O)cc3)[nH]c2c1 [Compound 6, 2-(4-Hydroxyphenyl)-1H-benzo[d]imidazole-6-sulfonamide]
7.13	1.2	7.20	1.4	7.04	6.35	NS(=O)(=O)c1ccc2nc(Cc3ccc(O)cc3)[nH]c2c1 [Compound 7, 2-(4-Hydroxybenzyl)-1H-benzo[d]imidazole-6-sulfonamide]
7.84	3.3	8.01	4.9	7.32	6.67	NS(=O)(=O)c1ccc2nc(CCc3ccc(O)cc3)[nH]c2c1 [Compound 8, 2-(4-Hydroxyphenethyl)-1H-benzo[d]imidazole-6-sulfonamide]
7.32	2.2	7.10	1.3	6.98	7.03	NS(=O)(=O)c1ccc2nc(-c3ccccc3)[nH]c2c1 [Compound 9, 2-Phenyl-1H-benzo[d]imidazole-6-sulfonamide]
7.53	6.3	7.14	2.6	6.73	6.68	COC(=O)c1ccc(-c2nc3ccc(S(N)(=O)=O)cc3[nH]2)cc1 [Compound 10, Methyl 4-(6-sulfamoyl-1H-benzo[d]imidazol-2-yl)benzoate]
7.19	2.1	7.24	2.3	6.88	7.01	NS(=O)(=O)c1ccc2nc(-c3ccc(C(=O)O)cc3)[nH]c2c1 [Compound 11, 4-(6-Sulfamoyl-1H-benzo[d]imidazol-2-yl)benzoic acid]
7.38	1.9	8.07	–	7.10	6.77	NS(=O)(=O)c1ccc2nc(-c3ccc(O)c(O)c3)[nH]c2c1 [Compound 12, 2-(3,4-Dihydroxyphenyl)-1H-benzo[d]imidazole-6-sulfonamide]
8.66	23.1	7.65	2.3	7.29	6.90	COC(=O)c1cc(-c2nc3ccc(S(N)(=O)=O)cc3[nH]2)ccc1O [Compound 13, Methyl 2-hydroxy-5-(6-sulfamoyl-1H-benzo[d]imidazol-2-yl)benzoate]
7.47	2.0	8.42	18.1	7.16	7.02	NS(=O)(=O)c1ccc2nc(-c3ccc(O)c(C(=O)O)c3)[nH]c2c1 [Compound 14, 2-hydroxy-5-(6-sulfamoyl-1H-benzo[d]imidazol-2-yl)benzoic acid]
6.41	–	6.09	–	5.05	< 5.00	CCNS(=O)(=O)c1ccc2nc(-c3ccc(O)c(C(=O)OC)c3)[nH]c2c1 [Compound 15, Methyl 5-(6-(N-ethylsulfamoyl)-1H-benzo[d]imidazol-2-yl)-2-hydroxybenzoate]
6.18	–	6.33	–	5.12	< 5.00	CCNS(=O)(=O)c1ccc2nc(-c3ccc(O)c(C(=O)O)c3)[nH]c2c1 [Compound 16, 5-(6-(N-ethylsulfamoyl)-1H-benzo[d]imidazol-2-yl)-2-hydroxybenzoic acid]
8.23	8.9	8.10	6.7	7.28	6.37	COC(=O)c1cc(CCc2nc3ccc(S(N)(=O)=O)cc3[nH]2)ccc1O [Compound 17, Methyl 2-hydroxy-5-(2-(6-sulfamoyl-1H-benzo[d]imidazol-2-yl)ethyl)benzoate]
8.12	3.3	8.38	5.9	7.61	6.36	NS(=O)(=O)c1ccc2nc(CCc3ccc(O)c(C(=O)O)c3)[nH]c2c1 [Compound 18, 2-Hydroxy-5-(2-(6-sulfamoyl-1H-benzo[d]imidazol-2-yl)ethyl)benzoic acid]
< 5.00	–	< 5.00	–	< 5.00	< 5.00	NC(=O)c1ccc2nc(-c3ccc(O)c(C(=O)O)c3)[nH]c2c1 [Compound 19, 5-(6-Carbamoyl-1H-benzo[d]imidazol-2-yl)-2-hydroxybenzoic acid]
